Results on two molecules are retold here after patent US20090286740A1, “PEPTIDES AND DERIVATIVES THEREOF, THE MANUFACTURING THEREOF AS WELL AS THEIR USE FOR PREPARING A THERAPEUTICALLY AND/OR PREVENTIVELY ACTIVE PHARMACEUTICAL COMPOSITION” (FIBREX MEDICAL RESEARCH & DEVELOPMENT GMBH, priority 2008, published 2009).

Where no end group is shown, it is not given here.

For one assay, the system named is RhoA. Briefly: thrombin induced RhoA activation in HUVEC culture (active RhoA pull-down, blot). In kind it is cell-based, human. To be noted: 5 U/ml thrombin alone, 5 min. The procedure:
The biological effect of the compounds was established in a model thrombin induced RhoA activation in human umbilical vein endothelial cell (HUVEC) culture.
HUVEC are grown to confluence under standard conditions. Before induction of Rho activity HUVEC were starved for 4 h by using IMDM (Gibco) without growth factor and serum supplements. After the starvation period 5 U/ml Thrombin (Calbiochem) or 5 U thrombin plus 50 μg/ml of test compound are added to the starvation medium for 1, 5 and 10 min. Active RhoA was isolated using Rho Assay Reagent from Upstate according to manufactures instructions. Isolates were separated on a 15% polyacrylamid gel and blotted on Nitrocellulose-Membrane (Bio-Rad). RhoA was dedected by using Anti-Rho (-A, -B, -C), clone55 from Upstate (1:500).

Assay [1] concerns the target T1, vascular endothelial (VE) cadherin (human, UniProt P33151 48-784).
T1 sequence (looked up): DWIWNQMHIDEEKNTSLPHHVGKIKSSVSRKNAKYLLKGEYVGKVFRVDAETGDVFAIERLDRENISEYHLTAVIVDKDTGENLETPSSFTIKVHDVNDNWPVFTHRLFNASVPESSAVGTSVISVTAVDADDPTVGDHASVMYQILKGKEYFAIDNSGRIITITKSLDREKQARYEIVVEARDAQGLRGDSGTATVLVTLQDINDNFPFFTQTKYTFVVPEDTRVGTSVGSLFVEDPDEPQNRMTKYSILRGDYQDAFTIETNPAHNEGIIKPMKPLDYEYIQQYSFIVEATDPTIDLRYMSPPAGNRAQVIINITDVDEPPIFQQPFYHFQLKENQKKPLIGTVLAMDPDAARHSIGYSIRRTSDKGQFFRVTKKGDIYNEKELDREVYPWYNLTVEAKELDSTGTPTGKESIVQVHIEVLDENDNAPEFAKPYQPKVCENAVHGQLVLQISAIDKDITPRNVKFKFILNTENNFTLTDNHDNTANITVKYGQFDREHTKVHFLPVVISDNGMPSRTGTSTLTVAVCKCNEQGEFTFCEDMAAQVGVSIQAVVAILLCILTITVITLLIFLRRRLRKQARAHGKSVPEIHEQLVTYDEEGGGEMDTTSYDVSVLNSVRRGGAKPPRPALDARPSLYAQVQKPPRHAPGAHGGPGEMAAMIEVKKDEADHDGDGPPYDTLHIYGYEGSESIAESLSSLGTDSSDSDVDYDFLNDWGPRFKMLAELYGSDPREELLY
Briefly: cell-based or functional assay.

On to thrombin, for which, in the assay on RhoA, the “Relative RhoA stimulation compared to unstimulated control” value came to 2.6.
As for GHRPLAPSLRPAPPPISGGGYR-OH [Gly-His-Arg-Pro-Leu-Ala-Pro-Ser-Leu-Arg-Pro-Ala-Pro-Pro-Pro-Ile-Ser-Gly-Gly-Gly-Tyr-Arg-OH], the “Relative RhoA stimulation compared to unstimulated control (thrombin-induced RhoA activation in HUVEC, Rho pull-down and blot; thrombin alone 5 min = 2.6)” value in assay [1] is 1.2 fold relative to unstimulated control.
